{"source": "patent US8183287B2", "about": "“Pharmaceutical formulations and compositions of a selective antagonist of either CXCR2 or both CXCR1 and CXCR2 and methods of using the same for treating inflammatory disorders” (Schering Corporation, priority 2006, dated 2012)", "key": {"[1]": {"assay": "clinical study in subjects with moderate to severe COPD", "assay_type": "in vivo, human", "conditions": "subjects with moderate to severe COPD, 3, 10, 30 mg, 12 weeks", "method": "This study, illustrated schematically in FIG. 4, is a double-blind, placebo-controlled, randomized, two-part study in subjects with moderate to severe COPD. Part 1 is a double-blind, placebo-controlled, randomized, rising-dose study consisting of four treatment groups enrolled in three cohorts (FIG. 4A). The treatment period for each cohort is 12 weeks in duration. […] After completing the safety analyses for Part 1 for Cohorts 1-3, Part 2 is conducted as detailed below. Part 2 is a double-blind, placebo-controlled, randomized, parallel group study consisting of four treatment groups enrolled as one cohort (FIG. 4B). The treatment period for Cohort 4 is 12 weeks in duration. […] Efficacy analyses are based solely on data collected from Part 2, Cohort 4 wherein the primary efficacy parameters measured are changes from Baseline in FEV1 and changes from Baseline in SCDS, both examined as longitudinal averages over the 12-week treatment period. […]"}, "[2]": {"test_system": "pulmonary mucin production", "assay": "pulmonary mucin production, prolonged treatment", "assay_type": "in vivo", "from_the_text": "(§1) WO 02/083624 describes this compound (as Examples 360.31 and 405), process of making the same, as well as treatment of chemokine-related diseases and cancer using the same. Likewise, WO 03/080053 describes the treatment of chemokine-related diseases using this compound."}, "[3]": {"assay": "clinical study (i): single-dose oral pharmacokinetics, Formulation 1 capsules", "assay_type": "in vivo, human", "conditions": "for AUC / Cmax / Tmax / half-life: both sexes, human, plasma; for AUC: po; for AUC / Cmax / Tmax / half-life / Tf Mean: healthy subjects; for Tmax: read-out: Tmax Median; for half-life: read-out: t1/2 Mean (converted)"}, "[4]": {"test_system": "neutrophil recruitment to the pleural cavities", "assay": "neutrophil recruitment to the pleural cavities in response to challenge, oral dosing", "assay_type": "in vivo", "conditions": "orally administered", "from_the_text": "as §1"}, "[5]": {"conditions": "both, human, in vivo"}, "[6]": {"assay": "clinical", "conditions": "both, human"}, "[7]": {"test_system": "carrageenan-induced paw edema", "assay": "carrageenan-induced paw edema", "assay_type": "in vivo", "conditions": "rats, compared with NSAIDs", "from_the_text": "as §1"}, "[8]": {"assay": "clinical study (ii): single-dose 30 mg, fasted or fed subjects, Formulation 1 capsules", "assay_type": "in vivo, human", "conditions": "single oral dose 30 mg; for Cmax / AUC / half-life / Tmax: both sexes, human, plasma, po, 30 mg; for Cmax / AUC / half-life / Tmax / Tf Mean: healthy subjects; for half-life: read-out: t1/2 Mean; for Tmax: read-out: Tmax Median"}, "[9]": {"assay": "clinical study (iii): multiple-dose oral pharmacokinetics, Formulation 1 capsules", "assay_type": "in vivo, human", "conditions": "for AUC(0-t): read-out: AUC (0-24 hr) Mean; for Tmax: read-out: Tmax Median"}, "[10]": {"test_system": "histological changes in arthritic joints", "assay": "histological changes in arthritic joints, prolonged treatment", "assay_type": "in vivo", "conditions": "rats", "from_the_text": "as §1"}, "[11]": {"conditions": "single oral dose 150 mg (+Filgrastim 300 μg)"}, "[12]": {"conditions": "both sexes, human, plasma, oral, 10 mg, multiple-dose 10 mg, Day 1"}, "[13]": {"conditions": "both sexes, human, plasma, oral, 10 mg, multiple-dose 10 mg, Day 14"}, "[14]": {"conditions": "both sexes, human, plasma, oral, 30 mg, multiple-dose 30 mg, Day 1"}, "[15]": {"conditions": "both sexes, human, plasma, oral, 30 mg, multiple-dose 30 mg, Day 14"}, "[16]": {"conditions": "both sexes, human, plasma, oral, 50 mg, multiple-dose 50 mg, Day 1"}, "[17]": {"conditions": "both sexes, human, plasma, oral, 50 mg, multiple-dose 50 mg, Day 14"}}, "note": "Like-named read-outs stand apart in the source and are kept apart here."}
{"smiles": "CC[C@@H](Nc1c(Nc2cccc(C(=O)N(C)C)c2O)c(=O)c1=O)c1ccc(C)o1", "note": "[Compound I]", "values": [{"measurement": "sputum neutrophil and peripheral blood neutrophils", "setting": "[1]", "result": "reduction in sputum neutrophil and peripheral blood neutrophils"}, {"measurement": "pulmonary mucin production", "setting": "[2]; mice", "result": "blocks"}, {"measurement": "pulmonary mucin production", "setting": "[2]; rats", "result": "blocks"}, {"measurement": "effect of 300 μg filgrastim on the pharmacokinetic profile", "setting": "[3]; 150 mg Compound I followed by filgrastim", "result": "did not alter the pharmacokinetic profile"}, {"measurement": "AUC", "setting": "[3]; 10 mg, single oral dose 10 mg, read-out: AUC (tf) Mean", "result": 162, "unit": "ng·h/mL"}, {"measurement": "AUC", "setting": "[3]; 50 mg, single oral dose 50 mg, n = 4, read-out: AUC(I) Mean", "result": 768, "unit": "ng·h/mL"}, {"measurement": "AUC", "setting": "[3]; 50 mg, single oral dose 50 mg, read-out: AUC (tf) Mean", "result": 665, "unit": "ng·h/mL"}, {"measurement": "AUC", "setting": "[3]; 100 mg, single oral dose 100 mg, read-out: AUC (tf) Mean", "result": 827, "unit": "ng·h/mL"}, {"measurement": "AUC", "setting": "[3]; 100 mg, single oral dose 100 mg, read-out: AUC(I) Mean", "result": 878, "unit": "ng·h/mL"}, {"measurement": "AUC", "setting": "[3]; 150 mg, single oral dose 150 mg, read-out: AUC (tf) Mean", "result": 1530, "unit": "ng·h/mL"}, {"measurement": "AUC", "setting": "[3]; 150 mg, single oral dose 150 mg, read-out: AUC(I) Mean", "result": 1640, "unit": "ng·h/mL"}, {"measurement": "AUC", "setting": "[3]; 200 mg, single oral dose 200 mg, read-out: AUC (tf) Mean", "result": 1730, "unit": "ng·h/mL"}, {"measurement": "AUC", "setting": "[3]; 200 mg, single oral dose 200 mg, read-out: AUC(I) Mean", "result": 1810, "unit": "ng·h/mL"}, {"measurement": "AUC", "setting": "[3]; single oral dose 150 mg (+Filgrastim 300 μg), read-out: AUC (tf) Mean", "result": 1320, "unit": "ng·h/mL"}, {"measurement": "AUC", "setting": "[3]; single oral dose 150 mg (+Filgrastim 300 μg), read-out: AUC(I) Mean", "result": 1380, "unit": "ng·h/mL"}, {"measurement": "Cmax", "setting": "[3]; single oral dose 10 mg", "result": 73.8, "unit": "ng/mL"}, {"measurement": "Tmax", "setting": "[3]; single oral dose 10 mg", "result": 60, "unit": "min"}, {"measurement": "Cmax", "setting": "[3]; single oral dose 50 mg", "result": 153, "unit": "ng/mL"}, {"measurement": "half-life", "setting": "[3]; single oral dose 50 mg, n = 4", "result": 948, "unit": "min"}, {"measurement": "Tmax", "setting": "[3]; single oral dose 50 mg", "result": 45, "unit": "min"}, {"measurement": "Cmax", "setting": "[3]; single oral dose 100 mg", "result": 261, "unit": "ng/mL"}, {"measurement": "Tmax", "setting": "[3]; single oral dose 100 mg", "result": 45, "unit": "min"}, {"measurement": "half-life", "setting": "[3]; single oral dose 100 mg", "result": 708, "unit": "min"}, {"measurement": "Cmax", "setting": "[3]; [11]", "result": 292, "unit": "ng/mL"}, {"measurement": "Tmax", "setting": "[3]; [11]", "result": 45, "unit": "min"}, {"measurement": "half-life", "setting": "[3]; [11]", "result": 780, "unit": "min"}, {"measurement": "Cmax", "setting": "[3]; single oral dose 150 mg", "result": 364, "unit": "ng/mL"}, {"measurement": "Tmax", "setting": "[3]; single oral dose 150 mg", "result": 45, "unit": "min"}, {"measurement": "half-life", "setting": "[3]; single oral dose 150 mg", "result": 1000, "unit": "min"}, {"measurement": "Cmax", "setting": "[3]; single oral dose 200 mg", "result": 416, "unit": "ng/mL"}, {"measurement": "Tmax", "setting": "[3]; single oral dose 200 mg", "result": 37.5, "unit": "min"}, {"measurement": "half-life", "setting": "[3]; single oral dose 200 mg", "result": 678, "unit": "min"}, {"measurement": "increase of Cmax and AUC with dose", "setting": "[3]; from 10 to 200 mg", "result": "dose-related, but not dose-proportional"}, {"measurement": "Tf Mean", "setting": "[3]; single oral dose 10 mg", "result": 14, "unit": "h"}, {"measurement": "Tf Mean", "setting": "[3]; single oral dose 50 mg", "result": 46, "unit": "h"}, {"measurement": "Tf Mean", "setting": "[3]; single oral dose 100 mg", "result": 38, "unit": "h"}, {"measurement": "Tf Mean", "setting": "[3]; [11]", "result": 58, "unit": "h"}, {"measurement": "Tf Mean", "setting": "[3]; single oral dose 150 mg", "result": 64, "unit": "h"}, {"measurement": "Tf Mean", "setting": "[3]; single oral dose 200 mg", "result": 52, "unit": "h"}, {"measurement": "neutrophil recruitment to the pleural cavities", "setting": "[4]; mice", "result": "effectively blocks"}, {"measurement": "neutrophil recruitment to the pleural cavities", "setting": "[4]; rats", "result": "effectively blocks"}, {"measurement": "Median max values", "setting": "[5]", "result": "0.5 to 2", "unit": "h"}, {"measurement": "Vd/F", "setting": "[6]; in vivo", "result": "1470 to 2200", "unit": "L"}, {"measurement": "half-life", "setting": "[6]; plasma, oral", "result": "678 to 1370", "unit": "min"}, {"measurement": "ability to inhibit carrageenan-induced paw edema", "setting": "[7]", "result": "compares very favorably with NSAIDs"}, {"measurement": "Cmax", "setting": "[8]; fasted", "result": 147, "unit": "ng/mL"}, {"measurement": "AUC", "setting": "[8]; fasted, n = 10, read-out: AUC(I) Mean", "result": 563, "unit": "ng·h/mL"}, {"measurement": "half-life", "setting": "[8]; fasted, n = 10", "result": 1250, "unit": "min"}, {"measurement": "AUC", "setting": "[8]; fasted, read-out: AUC (tf) Mean", "result": 484, "unit": "ng·h/mL"}, {"measurement": "Tmax", "setting": "[8]; fasted", "result": 45, "unit": "min"}, {"measurement": "Cmax", "setting": "[8]; fed", "result": 122, "unit": "ng/mL"}, {"measurement": "AUC", "setting": "[8]; fed, n = 7, read-out: AUC(I) Mean", "result": 572, "unit": "ng·h/mL"}, {"measurement": "half-life", "setting": "[8]; fed, n = 7", "result": 1370, "unit": "min"}, {"measurement": "AUC", "setting": "[8]; fed, read-out: AUC (tf) Mean", "result": 489, "unit": "ng·h/mL"}, {"measurement": "Tmax", "setting": "[8]; fed", "result": 120, "unit": "min"}, {"measurement": "mean Cmax with food lower than Compound I alone", "setting": "[8]", "result": 17, "unit": "%"}, {"measurement": "Tf Mean", "setting": "[8]; fasted", "result": 40, "unit": "h"}, {"measurement": "Tf Mean", "setting": "[8]; fed", "result": 32.3, "unit": "h"}, {"measurement": "Cmax", "setting": "[9]; [12]", "result": 76, "unit": "ng/mL"}, {"measurement": "AUC(0-t)", "setting": "[9]; [12]", "result": 137, "unit": "ng·h/mL"}, {"measurement": "Tmax", "setting": "[9]; [12]", "result": 30, "unit": "min"}, {"measurement": "Cmax", "setting": "[9]; [13]", "result": 78.1, "unit": "ng/mL"}, {"measurement": "AUC(0-t)", "setting": "[9]; [13]", "result": 156, "unit": "ng·h/mL"}, {"measurement": "Tmax", "setting": "[9]; [13]", "result": 30, "unit": "min"}, {"measurement": "Cmax", "setting": "[9]; [14]", "result": 173, "unit": "ng/mL"}, {"measurement": "AUC(0-t)", "setting": "[9]; [14]", "result": 397, "unit": "ng·h/mL"}, {"measurement": "Tmax", "setting": "[9]; [14]", "result": 30, "unit": "min"}, {"measurement": "Cmax", "setting": "[9]; [15]", "result": 159, "unit": "ng/mL"}, {"measurement": "AUC(0-t)", "setting": "[9]; [15]", "result": 414, "unit": "ng·h/mL"}, {"measurement": "Tmax", "setting": "[9]; [15]", "result": 30, "unit": "min"}, {"measurement": "Cmax", "setting": "[9]; [16]", "result": 239, "unit": "ng/mL"}, {"measurement": "AUC(0-t)", "setting": "[9]; [16]", "result": 681, "unit": "ng·h/mL"}, {"measurement": "Tmax", "setting": "[9]; [16]", "result": 45, "unit": "min"}, {"measurement": "Cmax", "setting": "[9]; [17]", "result": 279, "unit": "ng/mL"}, {"measurement": "AUC(0-t)", "setting": "[9]; [17]", "result": 825, "unit": "ng·h/mL"}, {"measurement": "Tmax", "setting": "[9]; [17]", "result": 30, "unit": "min"}, {"measurement": "half-life", "setting": "[9]; both sexes, human, plasma, oral, multiple-dose 50 mg, Day 14, n = 7, read-out: t1/2 Mean (converted)", "result": 828, "unit": "min"}, {"measurement": "steady state achieved by", "setting": "[9]; multiple doses", "result": "≤ 11", "unit": "days"}, {"measurement": "histological changes in arthritic joints", "setting": "[10]", "result": "blocks"}]}
